# Values of other authors, collected in patent US20130289102A1, “AMYRIS ALCOHOL AND ITS ESTER FOR TREATING ACNE” (Trinity Laboratories, Inc., priority 2010, published 2013).
# Tests used:
# [1] = mouse, in vivo, po
# [2] = test system: estrogenic activity; conditions: among the known phytoestrogens
# [3] = up to 292 mg/kg over 1 to 3 months
# [4] = test system: creatine kinase activity; conditions: rat uterus, epiphyseal cartilage, diaphyseal bone, aorta, left ventricle of the heart
# [5] = test system: UVB-induced pigmented skins
# [6] = test system: cyclooxygenase; conditions: 6.25 μg/ml, with respect to the control
# [7] = biological target: T1, human estrogen receptor (Homo sapiens, UniProt P03372)
# T1 sequence (P03372 1-595): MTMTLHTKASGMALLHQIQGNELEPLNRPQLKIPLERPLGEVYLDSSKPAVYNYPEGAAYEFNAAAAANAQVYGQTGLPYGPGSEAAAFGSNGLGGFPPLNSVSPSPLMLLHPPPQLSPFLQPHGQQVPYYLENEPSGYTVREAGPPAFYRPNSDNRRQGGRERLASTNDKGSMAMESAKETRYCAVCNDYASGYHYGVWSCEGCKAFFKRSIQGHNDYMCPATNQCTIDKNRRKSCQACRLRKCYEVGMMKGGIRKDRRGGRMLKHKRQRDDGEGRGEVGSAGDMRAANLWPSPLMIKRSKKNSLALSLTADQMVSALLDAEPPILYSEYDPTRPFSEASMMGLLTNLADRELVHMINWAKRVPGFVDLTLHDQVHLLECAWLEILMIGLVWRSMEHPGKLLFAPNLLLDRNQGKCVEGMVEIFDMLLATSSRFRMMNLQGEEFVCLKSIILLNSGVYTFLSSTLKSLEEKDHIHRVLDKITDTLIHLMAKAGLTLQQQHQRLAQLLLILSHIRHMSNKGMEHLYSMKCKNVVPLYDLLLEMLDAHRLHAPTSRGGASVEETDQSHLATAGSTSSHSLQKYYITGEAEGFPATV
# [8] = test system: breast tumor cells
# [9] = test system: superoxide anion production; conditions: 0.33 μg/ml to 33.3 μg/ml
# [10] = test system: neurogenic inflammation; conditions: following electrical stimulation of rat trigeminal ganglion
# [11] = test system: post-ischemic brain injury; conditions: focal ischemia in rats
# [12] = biological target: presynaptic omega-agatoxin IVA-sensitive (P/Q-type) Ca^2+ channel (Rattus norvegicus, UniProt P54282)
# [13] = test system: porcine brain microvascular endothelial cells; conditions: 50-100 microM
# [14] = biological target: T2, nicotinic ACh receptor channel (Mus musculus, UniProt P02716+P04756+P09690+P20782)
# T2 construct: the nicotinic acetylcholine receptor channel in mouse skeletal muscles; host or cells: mouse skeletal muscle
# [15] = test system: Na^+, K(+)-ATPase; conditions: compared with other phosphatases examined
# [16] = test system: angiogenesis; conditions: mice
# [17] = test system: PC-12 cells
# [18] = test system: human umbilical vein endothelial cells (HUVEC)
# [19] = test system: extracellular signal-regulated kinase (ERK) 1/2; conditions: 100 microM
# T2 sequence (P04756 21-457): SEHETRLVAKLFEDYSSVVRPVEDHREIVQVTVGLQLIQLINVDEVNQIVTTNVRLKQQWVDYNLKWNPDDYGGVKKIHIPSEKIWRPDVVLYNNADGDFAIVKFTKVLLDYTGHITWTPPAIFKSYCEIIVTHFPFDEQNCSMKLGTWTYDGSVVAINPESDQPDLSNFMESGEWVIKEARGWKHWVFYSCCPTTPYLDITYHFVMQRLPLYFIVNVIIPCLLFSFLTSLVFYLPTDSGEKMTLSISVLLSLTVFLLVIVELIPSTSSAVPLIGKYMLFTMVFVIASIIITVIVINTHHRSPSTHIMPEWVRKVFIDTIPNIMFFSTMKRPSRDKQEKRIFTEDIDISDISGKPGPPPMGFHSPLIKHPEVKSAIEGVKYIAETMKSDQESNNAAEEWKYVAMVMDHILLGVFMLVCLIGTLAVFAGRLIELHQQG
# T2 sequence (P09690 24-501): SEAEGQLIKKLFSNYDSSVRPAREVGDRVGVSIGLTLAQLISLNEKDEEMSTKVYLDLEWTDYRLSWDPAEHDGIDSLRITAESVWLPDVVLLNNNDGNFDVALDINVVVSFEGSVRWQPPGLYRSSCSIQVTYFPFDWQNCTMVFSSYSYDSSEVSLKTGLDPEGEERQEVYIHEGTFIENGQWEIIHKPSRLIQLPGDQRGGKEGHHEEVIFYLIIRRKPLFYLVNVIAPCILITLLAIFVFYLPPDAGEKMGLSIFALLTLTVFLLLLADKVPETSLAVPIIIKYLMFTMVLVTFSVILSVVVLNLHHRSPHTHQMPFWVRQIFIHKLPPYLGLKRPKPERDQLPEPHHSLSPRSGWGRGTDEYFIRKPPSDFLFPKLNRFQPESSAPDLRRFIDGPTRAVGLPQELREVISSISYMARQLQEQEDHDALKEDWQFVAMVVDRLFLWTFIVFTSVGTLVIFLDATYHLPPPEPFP
# T2 sequence (P02716 25-520): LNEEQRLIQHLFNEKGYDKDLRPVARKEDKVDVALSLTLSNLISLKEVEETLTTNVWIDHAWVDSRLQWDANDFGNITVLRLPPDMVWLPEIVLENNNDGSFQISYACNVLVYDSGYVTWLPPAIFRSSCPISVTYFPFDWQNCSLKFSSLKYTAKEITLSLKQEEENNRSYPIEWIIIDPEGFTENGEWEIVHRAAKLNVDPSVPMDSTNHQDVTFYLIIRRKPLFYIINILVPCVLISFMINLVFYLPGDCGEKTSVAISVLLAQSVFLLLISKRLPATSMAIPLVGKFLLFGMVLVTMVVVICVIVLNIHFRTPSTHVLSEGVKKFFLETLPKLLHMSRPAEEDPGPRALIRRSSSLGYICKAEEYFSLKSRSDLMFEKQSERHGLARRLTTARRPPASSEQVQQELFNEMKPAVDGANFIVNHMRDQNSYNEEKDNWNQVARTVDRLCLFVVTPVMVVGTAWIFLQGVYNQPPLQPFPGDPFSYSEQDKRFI
# T2 sequence (P20782 21-493): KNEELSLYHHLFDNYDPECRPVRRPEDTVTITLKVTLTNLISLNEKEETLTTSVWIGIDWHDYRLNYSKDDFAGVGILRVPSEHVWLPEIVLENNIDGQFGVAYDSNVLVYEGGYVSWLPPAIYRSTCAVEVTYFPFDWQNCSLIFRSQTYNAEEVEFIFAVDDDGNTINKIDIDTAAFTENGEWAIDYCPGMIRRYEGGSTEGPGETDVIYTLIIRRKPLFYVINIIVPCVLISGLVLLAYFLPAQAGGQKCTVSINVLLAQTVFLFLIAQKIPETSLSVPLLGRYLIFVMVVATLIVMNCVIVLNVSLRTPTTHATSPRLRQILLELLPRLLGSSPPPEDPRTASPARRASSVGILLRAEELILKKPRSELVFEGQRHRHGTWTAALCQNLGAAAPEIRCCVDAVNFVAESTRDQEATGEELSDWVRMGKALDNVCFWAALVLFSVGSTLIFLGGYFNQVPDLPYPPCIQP
# presynaptic omega-agatoxin IVA-sensitive (P/Q-type) Ca^2+ channel, sequence (P54282 whole entry): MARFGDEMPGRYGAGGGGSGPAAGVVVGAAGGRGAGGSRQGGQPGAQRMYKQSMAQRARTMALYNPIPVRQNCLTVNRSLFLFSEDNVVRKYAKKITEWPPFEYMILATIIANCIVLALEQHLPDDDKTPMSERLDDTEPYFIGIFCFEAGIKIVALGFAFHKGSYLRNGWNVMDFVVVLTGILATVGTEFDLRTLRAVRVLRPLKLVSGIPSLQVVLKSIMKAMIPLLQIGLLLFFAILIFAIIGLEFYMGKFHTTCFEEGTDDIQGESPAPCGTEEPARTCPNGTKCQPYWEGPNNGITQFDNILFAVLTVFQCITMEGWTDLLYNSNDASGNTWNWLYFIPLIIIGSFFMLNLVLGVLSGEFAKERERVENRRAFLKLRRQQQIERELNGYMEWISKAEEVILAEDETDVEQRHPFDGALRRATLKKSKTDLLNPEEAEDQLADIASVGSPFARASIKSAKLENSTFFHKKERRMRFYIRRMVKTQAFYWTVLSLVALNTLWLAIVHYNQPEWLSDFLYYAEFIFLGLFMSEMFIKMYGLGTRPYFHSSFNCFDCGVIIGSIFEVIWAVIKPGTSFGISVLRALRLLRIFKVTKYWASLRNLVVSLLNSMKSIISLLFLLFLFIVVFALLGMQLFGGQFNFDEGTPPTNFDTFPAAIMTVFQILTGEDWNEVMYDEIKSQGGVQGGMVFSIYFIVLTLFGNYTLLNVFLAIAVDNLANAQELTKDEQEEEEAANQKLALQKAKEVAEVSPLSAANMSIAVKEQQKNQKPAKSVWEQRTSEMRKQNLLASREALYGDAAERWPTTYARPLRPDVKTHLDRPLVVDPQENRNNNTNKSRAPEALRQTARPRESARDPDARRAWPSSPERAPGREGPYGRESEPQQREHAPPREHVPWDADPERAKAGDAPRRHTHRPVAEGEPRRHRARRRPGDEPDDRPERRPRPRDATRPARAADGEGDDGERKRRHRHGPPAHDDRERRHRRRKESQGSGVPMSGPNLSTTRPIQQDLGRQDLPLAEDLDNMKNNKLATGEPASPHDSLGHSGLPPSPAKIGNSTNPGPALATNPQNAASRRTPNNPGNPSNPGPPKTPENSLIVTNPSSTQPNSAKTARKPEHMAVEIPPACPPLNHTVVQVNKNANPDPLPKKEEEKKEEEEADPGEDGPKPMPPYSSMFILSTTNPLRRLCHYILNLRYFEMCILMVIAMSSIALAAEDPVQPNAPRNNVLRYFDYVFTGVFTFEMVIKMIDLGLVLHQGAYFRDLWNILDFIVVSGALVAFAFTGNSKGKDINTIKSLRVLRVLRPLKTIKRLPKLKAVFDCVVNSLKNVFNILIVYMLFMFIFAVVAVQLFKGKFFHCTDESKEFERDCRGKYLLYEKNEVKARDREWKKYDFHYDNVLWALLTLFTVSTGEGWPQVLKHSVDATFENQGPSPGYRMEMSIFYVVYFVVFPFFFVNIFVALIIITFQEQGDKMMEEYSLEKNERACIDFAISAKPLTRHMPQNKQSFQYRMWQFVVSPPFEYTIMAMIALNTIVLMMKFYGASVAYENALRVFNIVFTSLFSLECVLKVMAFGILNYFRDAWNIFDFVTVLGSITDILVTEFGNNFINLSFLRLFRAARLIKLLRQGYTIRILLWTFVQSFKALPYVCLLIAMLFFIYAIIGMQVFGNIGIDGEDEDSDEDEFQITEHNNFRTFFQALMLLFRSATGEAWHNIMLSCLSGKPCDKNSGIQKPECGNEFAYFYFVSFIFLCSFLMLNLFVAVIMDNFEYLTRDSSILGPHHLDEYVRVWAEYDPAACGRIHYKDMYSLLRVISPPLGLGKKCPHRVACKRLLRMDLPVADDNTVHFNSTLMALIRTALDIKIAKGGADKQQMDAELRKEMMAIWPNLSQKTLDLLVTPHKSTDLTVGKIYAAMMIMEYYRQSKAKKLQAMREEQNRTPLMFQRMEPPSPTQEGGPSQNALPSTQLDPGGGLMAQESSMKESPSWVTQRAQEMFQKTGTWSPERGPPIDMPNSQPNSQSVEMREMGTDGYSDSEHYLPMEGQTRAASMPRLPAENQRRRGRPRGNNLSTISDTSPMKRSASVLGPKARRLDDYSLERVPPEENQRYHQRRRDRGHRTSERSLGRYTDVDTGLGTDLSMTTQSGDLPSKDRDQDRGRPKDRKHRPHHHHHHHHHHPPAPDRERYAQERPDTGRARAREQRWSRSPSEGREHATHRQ
smiles,measurement,setting,value
C[C@@H]1CC[C@H]2[C@@H](C)C(=O)O[C@@H]3O[C@@]4(C)CC[C@@H]1[C@]32OO4 [Artemisinin],LD50,[1],4228 mg/kg
CC1(C)[C@H]2C(=COc3cc(O)ccc32)[C@@H]2C(=O)C[C@]3(O)C[C@H]1[C@H]2[C@H]3O [Deoxymiroestrol],estrogenic activity,[2],highest estrogenic activity among the known phytoestrogens
CC1(C)[C@H]2C(=COc3cc(O)ccc32)[C@]2(O)C(=O)C[C@]3(O)C[C@H]1[C@H]2[C@H]3O [Miroestrol],estrogenic activity,[2],highest estrogenic activity among the known phytoestrogens
CO[C@H]1O[C@@H]2O[C@@]3(C)CC[C@H]4[C@H](C)CC[C@@H]([C@H]1C)[C@@]24OO3 [artemether],toxicity in monkeys,[3],no toxicity
"CC1(C)C=Cc2c(ccc3c2OC[C@@H](c2ccc(O)cc2O)C3)O1 [glabridin, Glabridin]",creatine kinase activity,[4],stimulating creatine kinase activity
same,pigmentation induced by UVB radiation,"[5]; 0.5% solution, topical, backs of brownish guinea pigs",significantly reduced pigmentation
same,inflammation induced by UVB irradiation,"[5]; 0.5% solution, topical, guinea pig skin",decreased the inflammation
same,DOPA-positive melanocytes,"[5]; treated skin, epidermal histology",reduced in number
same,cyclooxygenase activity,[6],inhibited the cyclooxygenase activity
same,binding to estrogen receptor,[7],binding to the human estrogen receptor
same,"effect on growth of breast tumor cells, low concentrations","[8]; 10 nM-10 μM, estrogen receptor-dependent",growth-promoting effect
same,"effect on growth of breast tumor cells, high concentrations","[8]; >15 μM, estrogen receptor-independent",antiproliferative activity
same,superoxide (active oxygen) formation,[9],inhibited superoxide (active oxygen) formation
CC1=CCC[C@]2(C)CC[C@@H](C(C)(C)O)C[C@@H]12 [α-eudesmol],inhibition of neurogenic inflammation,[10],potently inhibits
same,post-ischemic brain injury,[11],attenuates post-ischemic brain injury
same,inhibition of P/Q-type Ca2+ channel,[12],potently inhibits
C=C1CCC[C@]2(C)CC[C@@H](C(C)(C)O)C[C@@H]12 [β-eudesmol],proliferation of porcine brain microvascular endothelial cells,[13],inhibited
same,desensitization of the nicotinic ACh receptor,[14],accelerated the desensitization
same,nicotinic ACh receptor channel block,[14]; mouse skeletal muscles,blocked the nicotinic ACh receptor channel in both the open and closed conformations
same,"inhibition of Na+,K+-ATPase activity",[15],most strongly among the various kinds of phosphatases examined
same,angiogenesis in adjuvant-induced granuloma,[16],significantly inhibited angiogenesis
same,angiogenesis in subcutaneously implanted Matrigel plugs,[16],significantly inhibited angiogenesis
same,neurite extension,[17]; 100 and 150 μM,significantly induced neurite extension
same,[3H]thymidine incorporation,[17]; at the highest concentration (150 μM),suppression of [^3H]thymidine incorporation
same,HUVEC migration stimulated by bFGF,[18],inhibited the HUVEC migration
same,tube formation by HUVEC in Matrigel,[18],inhibited
same,proliferation of HUVEC,[18]; 50-100 microM,inhibited
same,phosphorylation of ERK 1/2 induced by bFGF or vascular endothelial growth factor,[19],blocked the phosphorylation
